The text below walks through data of PubChem BioAssay (NCI).

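Values below derive from 48-hour exposures of cells grown in 96-well plates, with endpoints linearly interpolated between the two concentrations bracketing the appropriate inhibition level. TGI is the concentration that stops growth completely.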 Where a SMILES comes first, the peptide text is derived from it. [ ]: non-standard residue; d: D form. The star is where a group is joined. ξ: configuration not given here. X37 = O=C(OCc1ccccc1)[C@@H]1CCC[C@H]1N*; Fmoc = O=C(OCC1c2ccccc2-c2ccccc21)*; ξW = NC(Cc1c[nH]c2ccccc12)C(=O)O; ξF = NC(Cc1ccccc1)C(=O)O; Boc = CC(C)(C)OC(=O)*; ξK = NCCCCC(N)C(=O)O; ξT = CC(O)C(N)C(=O)O; tBu = CC(C)(C)*

Holding throughout (test): NCI anticancer screen, dose series, 48 h
Assay [1] relates to COLO 205 colon.
For assay [2], the system named is ACHN renal.
The subject of assay [3] is HOP-62 NSCLC.
The subject of assay [4] is EKVX NSCLC.
The test system of assay [5] is HCC-2998 colon.
Assay [6] concerns 786-0 renal.
The subject of assay [7] is LOX IMVI melanoma.
Assay [8] has as its system MALME-3M melanoma.
Assay [9] has as its system OVCAR-3 ovarian.
Assay [10] concerns CAKI-1 renal.

As to `CC(C)(C)[C@@H]1NC(=O)CN1C(=O)OCc1ccccc1`, the TGI in assay [1], in assay [2], in [3], in assay [4], in [5] and in assay [6] was over 100 µM each time. Besides, the TGI in assay [7] and in [8] was over 100 µM in each case.
Take `CC(C)(C)c1cc(C2COC(=O)COCCOCC(=O)OCCOCCO2)cc(C(C)(C)C)c1O` (centres undefined): the TGI was over 100 µM in [1]; 37.2 µM in assay [2]; over 100 µM in assay [9]; over 92.9 µM in assay [3]; over 100 µM in assay [4]; 43 µM in assay [5]. In addition, the TGI in assay [6] was 32.5 µM; in assay [7] it was over 31.6 µM; in assay [8], over 100 µM; in assay [10], 33.4 µM.
As for `Cc1[nH]n(C(=O)c2ccccc2O)c(=O)c1/C=C1\C(=O)C=Cc2ccccc21`, the TGI was 13.1 µM in [1]; 12.8 µM in [2]; 1.2 µM in assay [9]; 6.64 µM in assay [3]; 19.4 µM in assay [4]; over 71.7 µM in assay [5]. In addition, the TGI is 10.1 µM in assay [6], 8.79 µM in assay [7], 16.5 µM in assay [8] and 6.64 µM in assay [10].
In the case of `O=C(/C=C1\N=C(c2ccccc2)N(c2ccc3c(c2)Sc2cc(N4C(=O)/C(=C/C(=O)/C=C/c5ccccc5)N=C4c4ccccc4)ccc2N3)C1=O)/C=C/c1ccccc1`, the TGI was over 100 µM in assay [1]; over 100 µM in [2]; 43.6 µM in assay [9]; over 100 µM in assay [3]; over 100 µM in assay [4]; over 100 µM in [5]. Also, the TGI is over 100 µM in [6], 84.9 µM in assay [7], 55.8 µM in assay [8] and over 100 µM in assay [10].
With `CC(C)C[C@H](NC(=O)[C@@H](Cc1cccc2ccccc12)NC(=O)N1CCOCC1)B(O)O`, the TGI in assay [1] is 36.4 µM; in [2], over 100 µM; in assay [9] it was 6.69 µM; in assay [3], 33.3 µM; in assay [4] it was 47.6 µM; in [5] it was 4.47 µM. Moreover, the TGI in assay [6] was found to be 19.7 µM; in assay [7], 5.98 µM; in [8], 2.72 µM; in assay [10], 33.2 µM.
As for `CC(OC(C)(C)C)C(NC(=O)C(CCCCNC(=O)OC(C)(C)C)NC(=O)C(Cc1c[nH]c2ccccc12)NC(=O)C(Cc1ccccc1)NC(=O)OCC1c2ccccc2-c2ccccc21)C(=O)NC(Cc1ccccc1)C(=O)N[C@@H]1CCC[C@H]1C(=O)OCc1ccccc1` (some centres undefined) (Fmoc-[ξF][ξW][ξK](Boc)[ξT](tBu)[ξF]-X37), the TGI in assay [1], in assay [2], in [9], in assay [3], in [4] and in assay [5] was over 100 µM throughout. For the same compound, the TGI in [6], in assay [7], in assay [8] and in assay [10] was over 100 µM throughout.
On to `CC1(C)OC1CC/C(=C/CBr)CBr` (centres undefined), for which the TGI in [1] worked out at 29.4 µM; in [2], 30.9 µM; in assay [9] it was 33.7 µM; in [3], 31.6 µM; in assay [4], 33.3 µM; in assay [5], 29.8 µM. Also, the TGI in assay [6] came to 28.7 µM; in [7] it was 22.3 µM; in [8] it was 36.9 µM; in [10] it was 32.3 µM.
Regarding `Cc1ccc(S(=O)/C=C(\NC(=O)OCc2ccccc2)C(F)(F)F)cc1` (centres undefined), the TGI in assay [1] is over 100 µM; in [2], 71 µM; in [9] it was over 100 µM; in [4], over 100 µM; in [5], over 100 µM; in [6], over 100 µM. Besides, the TGI in assay [7], in assay [8] and in assay [10] was over 100 µM throughout.
For `COC(=O)CP1(=O)OC2C(C3CCC2(C)C3(C)C)N1c1cc(C(F)(F)F)cc(C(F)(F)F)c1` (centres undefined), the TGI in assay [1] is 49.1 µM; in assay [2], over 100 µM; in assay [9] it was 34.4 µM; in [3] it was 85.7 µM; in assay [4], over 100 µM; in [5], 55.2 µM. Also, the TGI in assay [6] came out at 41.7 µM; in assay [7], 49 µM; in [8], 58.1 µM; in assay [10] it was 83.1 µM.
As for `OC1(c2ccc(Cl)cc2)c2ccccc2C2=Nc3ccccc3CN21` (centres undefined), the TGI is over 100 µM in [1]; 28.6 µM in assay [2]; 9.77 µM in assay [9]; 30.8 µM in assay [3]; over 81.6 µM in assay [4]; over 100 µM in assay [5]. Moreover, the TGI is 25.8 µM in assay [6], over 100 µM in assay [7], 92 µM in assay [8] and over 100 µM in assay [10].
Regarding `CC1(C)COC(c2cccc(C3=NC(C)(C)CO3)c2)=N1`, the TGI in [1], in assay [2], in assay [3], in [4], in assay [5] and in [6] was over 100 µM throughout. Also, the TGI in [7], in [8] and in [10] was over 100 µM each time.
As to `CCCCc1ccc(N2C(=O)c3cc(C)cnc3S2(=O)=O)cc1`, the TGI in [1], in assay [2], in assay [9], in assay [3], in assay [4] and in assay [5] was over 100 µM throughout. Besides, the TGI in [6], in assay [7] and in assay [8] was over 100 µM throughout.
In the case of `CC(=O)OCc1ccc(-c2nc(C#N)c(N)o2)o1`, the TGI in assay [1], in [2], in assay [3], in assay [4], in assay [5] and in [6] was over 10 µM throughout. In addition, the TGI in assay [7], in assay [8] and in assay [10] was over 10 µM each time.
